{
  "source": "patent EP1029246B1",
  "about": "“A METHOD AND DEVICE FOR PREVENTING IMMUNOGLOBULIN DEGRADATION IN EXTERNAL SECRETIONS” (priority 1997, dated 1999)",
  "key": {"anti-Borrelia IgM serum": {"test_system": "anti-Borrelia IgM serum", "experiment": "Protection of anti-Borrelia IgM in spiked feces by various substances (ELISA), Example 4", "conditions": "33°C for 3 hours; for ELISA OD: concentrations of all cations 0.219M, dilution in ELISA 1/3000", "experimental": "(§1) 25 µl of a high titred anti-Borrelia IgM serum obtained from a patient with acute Borreliosis was added to 5 tubes, each containing 50 mg of a fecal sample from a healthy volunteer. Following vortexing for 30 seconds, 500 µl of the normotonic (319 mOsm/L) solutions (i) 1 X PBS (7,7 mM Na2HPO4, 2,99 mM NaH2PO4, 145 mM NaCl), (ii) 64.5 mM zinc gluconate, (iii) 64,5 mM MgCl2, (iv) 64.5 mM magnesium gluconate or (v) 96.9 mM NaCl, the latter four all dissolved in 1/3 X PBS to obtain the same osmolarity as 1 X PBS, i.e. 319 mOsm/L was added to each of the five tubes. Following vortexing for 30 seconds, the tubes were subsequently incubated at 30°C for 5 hours. Thereafter, 250 µl of a protease inhibitor cocktail (see above) was added to each of the 5 tubes. Solid matter was suspended by vortexing for another 30 seconds followed by centrifugation at 13,000 x g for 10 min. The supernatants were stored at -70°C prior to examination or immediately tested in a commercially available anti-Borrelia IgM ELISA. For the purpose of comparison, 25 µl of the anti-Borrelia IgM serum was run in the immunoassay.\n50 milligrams of feces and 25 µl of anti-Borrelia IgM serum were incubated at 33°C for 3 hours with each of the substances described in table 2. Following incubation, the fecal samples were processed and the extracts were obtained as described in example 3."}, "[1]": {"test_system": "anti-Borrelia IgM antibodies", "experiment": "Protection of anti-Borrelia IgM in spiked feces by equimolar zinc compounds (ELISA), Example 5", "conditions": "37°C for 4 hours, zinc concentration = 0.219M; for ELISA OD: dilution in ELISA 1/1450", "experimental": "50 milligrams of feces and 25 µl of anti-Borrelia IgM serum was incubated at 37°C for 4 hours with equimolar concentrations of zinc gluconate, zinc chloride and zinc acetate (zinc concentration = 0.219M)."}, "[2]": {"test_system": "anti-Borrelia IgM antibodies", "experiment": "Inhibition of degradation of anti-Borrelia IgM in spiked fecal samples (anti-Borrelia IgM ELISA), Example 1", "conditions": "for Initial ELISA, O.D.: feces plus anti-Borrelia IgM serum plus 10% zinc gluconate, 30°C for 5 hours", "experimental": "In example numbers 1-5, fecal samples are spiked with a single analyte of interest, i.e. a predetermined amount of a high titered anti-Borrelia IgM serum is added to fecal samples in order to determine the extent to which the protective solution of the present invention prevents the degradation of the particular analyte added.\n(§2) 50 µl of a high titer anti-Borrelia IgM serum obtained from a patient with acute Borreliosis was added to 3 tubes each containing 50 mg of a fecal sample from a healthy volunteer. Following vortexing for 30 seconds, the tubes were incubated at 30°C for 5 hours in the presence or absence of 150 µl of 10% zinc gluconate (Gluconal® ZN-G; Glucona B.V., Veendam, The Netherlands). Following incubation, 150 µl of a protease inhibitor cocktail (0.2 mM 4-{2-aminoethyl}benzenesulfonylfluoride [Calbiochem], 1 µg of aprotinin [Sigma] per ml, 10 µM leupeptin [Sigma], and 3.25 µM bestatin [Boehringer Mannheim, Indianapolis, USA]) was added. After vortexing, the tubes were centrifuged at 13,000 x g for 10 min. The supernatants were stored at -70°C or immediately tested in a commercially available anti-Borrelia IgM ELISA (IDELA™ Borrelia burgdorferi IgM, DAKO Diagnostics Ltd., Cambridgeshire, UK). For the purpose of comparison, 50 µl of anti-Borrelia IgM serum was run in the immunoassay.\nThe results are given in figure 4, Y-axis: ELISA results (O.D. value); X-axis: F+S; feces plus anti-Borrelia IgM serum incubated at 30°C or on ice for 5 hours, F+S+ZG; feces plus anti-Borrelia IgM serum plus zinc gluconate incubated at 30°C for 5 hours. […]"}, "[3]": {"test_system": "anti-Borrelia IgM antibodies", "experiment": "Long term stability of IgM antibodies extracted from spiked fecal samples, re-analysis in anti-Borrelia IgM ELISA, Example 2", "conditions": "extract stored at -70°C for 4 months, incubated 30°C for 5 hours", "experimental": "as §2\nThe fecal extracts described in Example 1 were stored at -70°C for 4 months, and then re-analyzed in the anti-Borrelia IgM ELISA to check the long term stability of the antibodies stored in the presence or absence of 10% zinc gluconate."}, "anti-Borrelia IgM": {"test_system": "anti-Borrelia IgM", "experiment": "Effect of normotonic (319 mOsm/L) solutions on degradation of anti-Borrelia IgM in spiked feces, Example 3", "experimental": "as §1, with “immunoassay. […]” for “immunoassay.”"}},
  "data": [
    {"molecule": "N=C(NCCCCCCNC(=N)NC(=N)Nc1ccc(Cl)cc1)NC(=N)Nc1ccc(Cl)cc1", "note": "[Chlorhexidine gluconate]", "values": [
      {"measurement": "ELISA OD", "setting": "anti-Borrelia IgM serum", "value": 0.003, "unit": "OD"}
    ]},
    {"molecule": "O=C([O-])[C@H](O)[C@@H](O)[C@H](O)[C@H](O)CO.[Na+]", "note": "[Sodium gluconate]", "values": [
      {"measurement": "ELISA OD", "setting": "anti-Borrelia IgM serum", "value": 0.087, "unit": "OD"}
    ]},
    {"molecule": "Copper acetate", "values": [
      {"measurement": "ELISA OD", "setting": "anti-Borrelia IgM serum", "value": 0.042, "unit": "OD"}
    ]},
    {"molecule": "Copper sulphate", "values": [
      {"measurement": "ELISA OD", "setting": "anti-Borrelia IgM serum", "value": 0.018, "unit": "OD"}
    ]},
    {"molecule": "Manganese chlonde", "values": [
      {"measurement": "ELISA OD", "setting": "anti-Borrelia IgM serum", "value": 0.184, "unit": "OD"}
    ]},
    {"molecule": "Sodium chloride", "values": [
      {"measurement": "ELISA OD", "setting": "anti-Borrelia IgM serum", "value": 0.043, "unit": "OD"}
    ]},
    {"molecule": "Zinc acetate [reference compound]", "values": [
      {"measurement": "ELISA OD", "setting": "[1]", "value": 0.281, "unit": "OD"}
    ]},
    {"molecule": "Zinc chloride [reference compound]", "values": [
      {"measurement": "ELISA OD", "setting": "[1]", "value": 0.011, "unit": "OD"}
    ]},
    {"molecule": "zinc gluconate", "values": [
      {"measurement": "inhibition of degradation of anti-Borrelia IgM antibodies (figure 4)", "setting": "[2]; 10% solution, fecal samples at 30°C for 5 hours", "value": "substantially inhibits the degradation"},
      {"measurement": "Initial ELISA, O.D.", "setting": "[2]; sample dilution 1/60", "value": 2.59, "unit": "O.D."},
      {"measurement": "Initial ELISA, O.D.", "setting": "[2]; sample dilution 1/180", "value": 2.57, "unit": "O.D."},
      {"measurement": "Initial ELISA, O.D.", "setting": "[2]; sample dilution 1/540", "value": 2.08, "unit": "O.D."},
      {"measurement": "ELISA O.D. after 4 months", "setting": "[3]; sample dilution 1/60", "value": 2.48, "unit": "O.D."},
      {"measurement": "ELISA O.D. after 4 months", "setting": "[3]; sample dilution 1/180", "value": 2.40, "unit": "O.D."},
      {"measurement": "ELISA O.D. after 4 months", "setting": "[3]; sample dilution 1/540", "value": 1.75, "unit": "O.D."},
      {"measurement": "inhibition of degradation of anti-Borrelia IgM (Figure 5)", "setting": "anti-Borrelia IgM; 64.5 mM in 1/3 X PBS, normotonic (319 mOsm/l), 30°C for 5 hours in feces", "value": "substantially inhibits the degradation"},
      {"measurement": "efficiency in conferring protection among the examined compounds (Figure 5)", "setting": "anti-Borrelia IgM; compared with normotonic PBS, MgCl2, magnesium gluconate, NaCl, 30°C for 5 hours", "value": "the most efficient"},
      {"measurement": "protection among the substances tested (Table 2)", "setting": "anti-Borrelia IgM serum; cations 0.219M", "value": "gives the best protection"},
      {"measurement": "ELISA OD", "setting": "anti-Borrelia IgM serum", "value": 0.360, "unit": "OD"},
      {"measurement": "protection of anti-Borrelia IgM antibodies from degradation (Table 3)", "setting": "[1]", "value": "significantly protects"},
      {"measurement": "ELISA OD", "setting": "[1]", "value": 0.910, "unit": "OD"},
      {"measurement": "capacity of the IgA molecules to bind antigen (CTB)", "setting": "anti-CTB IgA", "value": "preserved"},
      {"measurement": "inhibition of degradation of IgA (figure 6)", "setting": "anti-CTB IgA", "value": "significantly inhibit the degradation"}
    ]}
  ]
}
